Source: patent US8623996B2, “Cold active enzyme and method thereof” (University Putra Malaysia, priority 2010, dated 2014)
Square brackets hold non-standard residues; d marks the D form. Peptide text beside a SMILES is read from it. * marks the point of attachment. Sta = CC(C)C[C@H](N)[C@@H](O)CC(=O)O; Isovaleryl = CC(C)CC(=O)*

Tests used:
[1] = system: isolate PI12; experiment: Antibiotic resistance of isolate PI12; type: cell-based, Leucosporodium antarcticum
Experimental: The bacterium was grown in nutrient broth and agar plates at 4° C. without shaking. Visible growth was observed after one week of incubation. […] The growth of isolate PI12 was inhibited at 25-37° C.
Extracellular enzyme activities, by isolate PI12 namely protease and lipase, were also observed.

[2] = system: LipPI12 protease; experiment: Effect of metal ions on LipPI12 protease activity; type: biochemical, Leucosporodium antarcticum PI12; conditions: 1 mM metal ion, 30 min at 20° C.
Experimental: (§1) Both the lipase and protease were treated with 1 mM of various metal ions for 30 mins prior to enzyme assays. Lipase activity ?; protease activity ? .
(§2) Various metal ions were tested by treating the purified enzyme with 1 mM of metal ions such as Na^+, Mg^2+, Ca^2+, Fe^2+, Mn^2+, K^+, Zn^2+ and Cu^2+ for 30 min at 20° C. It was subjected to lipase and protease assays after treatment. The effects of various metal ions were tested on the purified LipPI12 activity and the remaining activity was assayed using olive oil emulsion. […] This is an indication which explains the role of Ca ion which may work as a stabilizer to the molecule, as predicted in the LipPI12 3D model. Whereas, the beta roll motif, served as a metal binding site, presumably predicted for the Ca ions. […] Na^+ Mg^2+ and Fe^2+ have toxic effect to the enzyme. Other metal ions tested were CuCl2, ZnCl2 and MnCl2, which had obviously made the lipase to be slightly stable and with no elimination of activity relatively not less than 50% (FIG. 27).
Protease LipPI12 looks more susceptible to all metal ions tested. […] The incubation with Na^+ and […] ions had done little effect as compared to the destabilizing manner shown by divalent ions of Cu^2+ and Mn^2+. […] A novel binding site for Zn ion may be involved in protease LipPI12. Structural elucidation is the best way to decipher the findings. The activation effect of Ca ion in both lipase and protease of LipPI12 is caused by the nature of the psychrophilic enzyme. Huge conformational movement will probably allow active residue rearrangement and can provide better accessibility of substrate, thus giving rise to a unique enzyme like LipPI12. This is achieved via local flexibility and mobility as the enzyme from psychrophiles evolves to withstand the extreme conditions, not only the coldness but also the low water content and substrate availability. Metal ions have been recognized to have effects on the activity of various enzymes. They bind the substrate and orient them properly for the reaction to occur. Besides mediating oxidation-reduction reactions, they can also electrostatically stabilize or shield negative charges. On the other hand, based on the correlation between the enzymes and metal ions, these enzymes could be classified into two types: Metalloenzymes and Metal-activated enzyme. In Metalloenzyme, metal ions such as Fe, Cu, Mn, Co are tightly bound ion pairs. While in the metal-activated enzymes, the metal ions such as Na, K, Mg, and Ca are loosely bound metal ions from the solution. Based on these facts, the protease LipPI12 is considered as a metal-activated enzyme.

[3] = system: LipPI12 lipase; experiment: Effect of metal ions on LipPI12 lipase activity; type: biochemical, Leucosporodium antarcticum PI12; conditions: 1 mM metal ion, 30 min at 20° C.
Experimental: as §1, §2

[4] = system: LipPI12 lipase; experiment: Organic solvent tolerance of LipPI12 lipase; type: biochemical, Leucosporodium antarcticum PI12; conditions: 3 ml enzyme solution + 1 ml solvent, 20° C., 30 min
Experimental: (§3) Protease activity ?; Lipase activity ? .
(§4) Study On LipPI12 organic solvent stability was carried out in reaction mixture containing purified LipPI12 and various solvents. The mixture was incubated at 20° C. with shaking rates at 150 rpm for 30 min. Control reaction was done by mixing the enzyme with water. Relative activity of lipase was determined according Kwon and Rhee (1986) method. Whereby protease assay was done according to Brock et, al., (1982). The effects of various organic solvents on the stability of the cold active LipPI12 were studied. A mixture of 3 ml enzyme solution and 1 ml of an organic solvent was incubated at 20° C. with shaking, and the remaining activity was measured after 30 min of incubation.

[5] = system: LipPI12 lipase; experiment: Effect of inhibitors on LipPI12 lipase activity; type: biochemical, Leucosporodium antarcticum PI12; conditions: 1 mM inhibitor, 20° C., 30 min
Experimental: (§5) The final concentration of inhibitors was 1 mM. The LipPI12 lipase and protease were assayed with olive oil as substrate after incubation with inhibitors for 30 min.
(§6) Partial understanding of the enzyme catalysis involves the reaction with various inhibitors. […] Various inhibitors were tested at a final concentration of 1 mM (PMSF, EDTA and pepstatin). The purified enzyme was treated with various inhibitors at 20° C. for 30 min prior to measuring the residual activity colorimetrically.

[6] = system: LipPI12 protease; experiment: Effect of inhibitors on LipPI12 protease activity; type: biochemical, Leucosporodium antarcticum PI12; conditions: 1 mM inhibitor, 20° C., 30 min
Experimental: as §5, §6

[7] = system: LipPI12 protease; experiment: Effect of surfactants on LipPI12 protease activity; type: biochemical, Leucosporodium antarcticum PI12; conditions: 0.1% surfactant, 20° C., 30 min
Experimental: (§7) The purified LipPI12 lipase and protease were mixed with surfactants (final concentration of 0.1%, v/v) and was incubated at 20° C. for 30 min prior to enzymatic assays. Lipase activity ?; Protease activity ? .
(§8) Surfactants or surface active agents are the most important constituents in the formulation of detergent. Enzyme and surfactants form unique interactions that affect the function of enzyme, i.e. whether to stabilize or destabilize. […] Lipase and protease LipPI12 was treated with various surfactants at a concentration of […] at 20° C. for 30 min before being subjected to lipase and protease assays colorimetrically. The study on the effect of LipPI12 lipase and its protease on various surfactants was carried out using 0.1% of surfactant, namely from TWEEN™ 20-80, TRITON™ X-100, SDS and SLS. […] Remarkably, LipPI12 protease was activated in the presence of TWEEN™ 80 and SLS, with 30 and 70% enhancement, respectively. […] The incubation with SDS also seemed to affect LipPI12 protease catalytic activity, where it dropped to only 27% of its control activity.

[8] = system: LipPI12 protease; experiment: Organic solvent tolerance of LipPI12 protease; type: biochemical, Leucosporodium antarcticum PI12; conditions: 3 ml enzyme solution + 1 ml solvent, 20° C., 30 min
Experimental: as §3, §4

[9] = system: LipPI12 lipase; experiment: Substrate specificity of LipPI12 lipase, para-nitrophenyl esters; type: biochemical, Leucosporodium antarcticum PI12; conditions: versus butyrate (C4), caprylate (C8), laurate (12)
Experimental: Values in bracket represent the fatty acid carbon chain length.
(§9) Various triglycerides (triacetin, tributyrin, tricaprylin, triolein) p-nitrophenol esters (p-nitrophenylbutyrate, p-nitrophenylcaprylate, p-nitrophenyllaurate, p-nitrophenylpalmitate) and natural oils (olive oil, soy bean oil, corn oil, sun flower oil, rice brain oil, coconut and palm oil) were tested for the cold active LipPI12 lipase activity. It was assayed at 20° C. for 30 min colorimetrically. The capability of the LipPI12 to hydrolyze different carbon chain lengths of triglycerides was investigated. […] LipPI12 lipase substrate specificity towards medium chain length was also observed in natural oils. […] LipPI12 low efficiency or inability to catalyze such substrate was probably due to improper substrate and active coordination and limited substrate accessibility as a result of cis conformation of aliphatic chain when compared to the trans conformation which is much linear. Artificial substrate was also used in the form of esters, namely para-nitrophenyl (pNP) esters containing carbon chain ranging from C4 (butyrate) to C16 (palmitate). […] Certainly, LipPI12 broad substrate specificity, which posed a huge prospect in application and the understanding of mechanism, is important. Nonetheless, the profile of substrate is a crucial point, where accessibility determines substrate specificity. […]

[10] = system: LipPI12 lipase; experiment: Substrate specificity of LipPI12 lipase, pure triglycerides; type: biochemical, Leucosporodium antarcticum PI12; conditions: 20° C., 30 min, substrate 1:1 v/v
Experimental: Values in bracket represent the carbon chain length of each substrate. LipPI12 lipase was assayed with the pure triglycerides (1:1, v/v) as substrate.
as §9, with “important.” for “important. Nonetheless, the profile of substrate is a crucial point, where accessibility determines substrate specificity.”

[11] = system: LipPI12 lipase; experiment: Effect of surfactants on LipPI12 lipase activity; type: biochemical, Leucosporodium antarcticum PI12; conditions: 0.1% surfactant, 20° C., 30 min
Experimental: as §7, §8
Target sequence in this assay (as listed by the source): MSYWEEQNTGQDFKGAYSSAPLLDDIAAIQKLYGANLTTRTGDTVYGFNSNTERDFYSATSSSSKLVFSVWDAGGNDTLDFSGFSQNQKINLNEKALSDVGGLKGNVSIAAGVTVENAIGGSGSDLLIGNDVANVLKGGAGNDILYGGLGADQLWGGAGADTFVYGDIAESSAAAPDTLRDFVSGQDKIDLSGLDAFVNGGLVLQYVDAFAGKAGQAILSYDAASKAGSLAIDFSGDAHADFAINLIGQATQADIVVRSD

Compound: CC1(C)S[C@@H]2[C@H](NC(=O)[C@H](N)c3ccccc3)C(=O)N2[C@H]1C(=O)O [Ampicilin]
- resistance of isolate PI12 [1]: resistance

Compound: [Ca+2].[Cl-].[Cl-] [CaCl2]
- protease relative activity as compared to the control [2]: ~100%
- effect of metal ion on lipase activity [3]: activator
- lipase activity as compared to the control ([3]; olive oil emulsion): 115%

Compound: O=C(N[C@H](CO)[C@H](O)c1ccc([N+](=O)[O-])cc1)C(Cl)Cl [Chloramphenicol]
- resistance of isolate PI12 [1]: resistance

Compound: [Cl][Cu][Cl] [CuCl2]
- effect of metal ion on protease activity [2]: do not affect
- protease relative activity as compared to the control [2]: 4%

Compound: CCOCC [Diethyleter]
- effect of organic solvent on lipase [4]: total elimination of activity

Compound: O=C(O)CN(CCN(CC(=O)O)CC(=O)O)CC(=O)O [EDTA, ethylene diamine tetraacetic acid]
- inhibition of lipase [5]: partially inhibited
- inhibition of protease (words) [6]: partially inhibited

Compound: [Cl][Fe]([Cl])[Cl] [FeCl3]
- effect of metal ion on protease activity [2]: do not affect

Compound: [Fe+2] [Fe^2+]
- protease relative activity as compared to the control [2]: ~100%
- effect of metal ion on lipase activity [3]: toxic effect

Compound: [K+] [IC]
- effect of metal ion on protease activity [2]: little effect

Compound: [Cl-].[Cl-].[Mg+2] [Mg^2+, MgCl2]
- effect of metal ion on protease activity [2]: activator
- protease relative activity as compared to the control [2]: ~100%
- effect of metal ion on lipase activity [3]: toxic effect

Compound: [Cl][Mn][Cl] [MnCl2]
- protease relative activity as compared to the control [2]: 40%

Compound: [Na+] [Na^+]
- effect of metal ion on protease activity [2]: little effect
- effect of metal ion on lipase activity [3]: toxic effect

Compound: O=S(=O)(F)Cc1ccccc1 [PMSF, phenylmethylsulphonyl fluoride]
- inhibition of lipase [5]: partially inhibited
- inhibition of protease (words) [6]: partially inhibited

Compound: CC(C)CC(=O)N[C@H](C(=O)N[C@H](C(=O)N[C@@H](CC(C)C)[C@@H](O)CC(=O)N[C@@H](C)C(=O)N[C@@H](CC(C)C)[C@@H](O)CC(=O)O)C(C)C)C(C)C [Pepstatin] (Isovaleryl-VV[Sta]A[Sta]-OH)
- inhibition of protease (words) [6]: drastically eliminated
- inhibition of protease (words) ([6]; listed as pepstatin): inhibited

Compound: CCCCCCCCCCCCOS(=O)(=O)[O-].[Na+] [SDS]
- protease activity remaining, of control activity [7]: 27%

Compound: CCCCCCCCCCCCOS(=O)(=O)[O-].[Na+] [SLS, Sodium lauryl sulphate]
- enhancement of protease activity [7]: 70%

Compound: [Cl-].[Cl-].[Zn+2] [ZnCl2]
- effect of metal ion on protease activity [2]: activator
- protease relative activity as compared to the control [2]: 170%

Compound: O=S(=O)([O-])[O-].[Zn+2] [ZnSO4]
- effect of metal ion on protease activity [2]: do not affect

Compound: c1ccccc1 [benzene]
- effect of organic solvent on lipase [4]: good stability

Compound: CCCCCCCCCC [decane]
- effect of organic solvent on lipase [4]: total elimination of activity

Compound: CCCCCCCCCCCC [dodecane]
- effect of organic solvent on lipase [4]: good stability

Compound: CCCCCCCCCCCCCCCC [hexadecane]
- effect of organic solvent on protease [8]: tolerance
- effect of organic solvent on lipase [4]: good stability

Compound: CCCCCC [hexane]
- effect of organic solvent on lipase [4]: total elimination of activity

Compound: CCCCCCCCCCCCCCCC(=O)Oc1ccc([N+](=O)[O-])cc1 [pNP palmitate, p-nitrophenylpalmitate]
- increment of activity relative to other pNP esters [9]: 60%

Compound: CCCO [propanol]
- lipase activity in solvent ([4]; control in water): > 160%

Compound: Cc1ccccc1 [toluene]
- decrease of lipase activity [4]: more than 50%

Compound: CCCCCCCCCCCC(=O)OCC(COC(=O)CCCCCCCCCCC)OC(=O)CCCCCCCCCCC [trilaurin]
- relative activity, triglyceride as substrate [10]: 100%

Compound: TRITON™ X-100
- effect of surfactant on lipase activity [11]: retains its activity
- effect of surfactant on protease activity [7]: retain its activity

Compound: TWEEN™ 40
- effect of surfactant on lipase activity [11]: retains its activity
- effect of surfactant on protease activity [7]: retain its activity

Compound: TWEEN™ 60
- effect of surfactant on lipase activity [11]: retains its activity
- effect of surfactant on protease activity [7]: retain its activity

Compound: TWEEN™ 80
- enhancement of protease activity [7]: 30%

Compound: dimethylsulfonyl
- effect of organic solvent on protease [8]: tolerance
- increase of lipase activity [4]: ~80%
